# Results taken from ChEMBL document CHEMBL1201862, “PubChem BioAssay data set” (2004).
# The source made the active and inactive calls.
# Assays:
# cells [1] = assay: cells
# [2] = Trypanosoma cruzi growth suppression in host cells – NIH3T3 host cells, beta-gal luminescence, confirmation (AID 2044); assay type: functional, cell-based;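 further: intracellular parasites grown in NIH/3T3 mouse fibroblasts as host cells; luminescent beta-galactosidase reporter signal from transgenic T. cruzi replicating inside host cells; inhibitors lower the luminescence signal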
# [3] = NIH3T3 cell viability loss – ATP luminescence, mouse fibroblasts, counter-screen, dose response (AID 2010); assay type: functional, cell-based;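 further: cells exposed to compound for about 90 hours before reading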
# [4] = target: Peroxisome proliferator-activated receptor gamma/Nuclear receptor corepressor 2 (Homo sapiens, UniProt P37231+Q9Y618); assay: Counterscreen for NR2E3 inverse agonists: TR-FRET-based biochemical high throughput dose response assay to identify inverse agonists of the interaction between peroxisome proliferator-activated receptor gamma (PPARg) and nuclear receptor co-repressor 2 (NCOR2).; assay type: functional
# [5] = target: Photoreceptor-specific nuclear receptor (Homo sapiens, UniProt Q9Y5X4); assay: ligands suppressing NR2E3 nuclear receptor activity – biochemical, TR-FRET, dose response (AID 463256); assay type: functional
# [6] = viability loss in THP-1 monocytes – THP-1 cells, cytotoxicity control for Vif-APOBEC3G degradation inhibitor project, dose response (AID 1117359); assay type: functional; details: THP-1
# [7] = target: Diphosphomevalonate decarboxylase (Streptococcus pneumoniae serotype 2 (strain D39 / NCTC 7466), UniProt Q9FD53); assay: diphosphomevalonate decarboxylase inhibitor confirmation – biochemical, cuvette format, coupled NADH fluorescence (AID 1028); assay type: functional
# [8] = target: T1, Tyrosine-protein phosphatase non-receptor type 7 (Homo sapiens, UniProt P35236); assay: HePTP tyrosine phosphatase activity blockers – biochemical, absorbance, leukemia target, primary screen (AID 521); assay type: functional
# T1 sequence (P35236 whole entry): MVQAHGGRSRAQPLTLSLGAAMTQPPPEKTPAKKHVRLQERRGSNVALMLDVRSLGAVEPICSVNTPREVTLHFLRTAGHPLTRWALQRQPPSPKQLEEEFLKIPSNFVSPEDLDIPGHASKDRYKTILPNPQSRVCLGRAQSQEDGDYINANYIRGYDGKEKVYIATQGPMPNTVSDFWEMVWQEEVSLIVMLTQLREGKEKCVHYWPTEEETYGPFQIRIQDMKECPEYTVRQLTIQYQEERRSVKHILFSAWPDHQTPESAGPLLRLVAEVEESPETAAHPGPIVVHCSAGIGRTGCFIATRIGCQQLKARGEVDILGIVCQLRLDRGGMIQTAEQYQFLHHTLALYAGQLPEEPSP
# cells [9] = assay: cells; remark: listed apart in the source
# [10] = target: T2, Oxysterols receptor LXR-beta (Homo sapiens, UniProt P55055); assay type: functional, cell-based;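 further: Cell-based luminescence dose-response assay of agonist activity at LXR, run as a confirmatory counterscreen to a daf-12 agonist screen; HEK293 cells with Gal4-LXR fusion and GAL4-driven luciferase reporter; agonist potency from rising luciferase signal of a Gal4-LXR reporter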
# T2 sequence (P55055 whole entry): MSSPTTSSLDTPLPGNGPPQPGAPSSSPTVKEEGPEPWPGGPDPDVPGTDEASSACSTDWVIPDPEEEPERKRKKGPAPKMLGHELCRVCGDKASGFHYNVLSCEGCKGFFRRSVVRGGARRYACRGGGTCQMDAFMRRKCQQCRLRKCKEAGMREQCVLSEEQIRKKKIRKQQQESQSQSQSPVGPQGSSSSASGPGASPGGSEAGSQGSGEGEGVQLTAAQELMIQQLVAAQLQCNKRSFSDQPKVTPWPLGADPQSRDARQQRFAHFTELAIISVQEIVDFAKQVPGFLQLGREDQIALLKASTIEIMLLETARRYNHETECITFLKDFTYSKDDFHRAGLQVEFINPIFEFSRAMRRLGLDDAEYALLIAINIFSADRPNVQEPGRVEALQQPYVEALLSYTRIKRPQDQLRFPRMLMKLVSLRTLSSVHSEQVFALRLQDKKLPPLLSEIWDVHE
# Protein skinhead-1 = target: T3, Protein skinhead-1 (Caenorhabditis elegans, UniProt P34707); assay type: functional
# T3 sequence (P34707 whole entry): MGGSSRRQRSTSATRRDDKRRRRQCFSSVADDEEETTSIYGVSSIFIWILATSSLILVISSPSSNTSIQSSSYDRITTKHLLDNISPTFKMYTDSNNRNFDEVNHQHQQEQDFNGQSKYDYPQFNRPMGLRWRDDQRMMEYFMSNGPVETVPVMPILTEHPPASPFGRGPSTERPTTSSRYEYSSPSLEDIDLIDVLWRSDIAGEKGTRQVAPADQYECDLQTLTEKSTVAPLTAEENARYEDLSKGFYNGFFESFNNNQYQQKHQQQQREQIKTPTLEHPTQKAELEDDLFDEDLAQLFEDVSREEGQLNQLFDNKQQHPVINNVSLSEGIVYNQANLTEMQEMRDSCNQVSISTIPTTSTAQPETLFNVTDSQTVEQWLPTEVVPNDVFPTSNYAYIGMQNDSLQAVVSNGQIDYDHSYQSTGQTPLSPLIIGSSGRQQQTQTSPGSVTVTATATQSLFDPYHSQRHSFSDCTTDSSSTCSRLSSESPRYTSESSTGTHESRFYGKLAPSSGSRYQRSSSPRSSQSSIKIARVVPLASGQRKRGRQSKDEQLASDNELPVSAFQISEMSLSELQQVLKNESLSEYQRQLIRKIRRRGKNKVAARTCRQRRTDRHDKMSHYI
# Bcl-2-related protein A1 [11] = target: T4, Bcl-2-related protein A1 (Mus musculus, UniProt Q07440); assay: small-molecule antagonists of Bfl-1/BH3 interaction – biochemical, TR-FRET, mouse Bfl-1, confirmation (AID 621);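 further: TR-FRET binding of GST-Bfl-1 to FITC-labelled Bid peptide via terbium antibody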
# T4 sequence (Q07440 whole entry): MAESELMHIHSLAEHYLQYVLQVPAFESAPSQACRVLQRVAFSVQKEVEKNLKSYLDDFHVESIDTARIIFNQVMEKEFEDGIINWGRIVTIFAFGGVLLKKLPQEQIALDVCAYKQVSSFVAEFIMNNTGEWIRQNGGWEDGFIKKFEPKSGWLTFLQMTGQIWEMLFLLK
# Bcl-2-related protein A1 [12] = target: T4, Bcl-2-related protein A1; assay: displacement of Bid BH3 peptide from Bfl-1 – biochemical, fluorescence polarization, FITC-Bid, mouse, primary screen (AID 432)
# Nonstructural protein 1 = Nonstructural protein 1 (Influenza A virus, UniProt Q194T2); assay type: functional, Influenza A virus (A/California/07/2009(H1N1))
# INS1 = assay: INS-1E survival protection against cytokine death – cell-based, luminescence, retest, dose response (AID 449756); assay type: functional; details: Rattus norvegicus;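 further: cell death triggered by IL-1 beta plus TNF-alpha plus IFN-gamma mixture; protective hits raise ATP signal compared with cytokine alone wells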
# [13] = alpha-synuclein stem-loop luciferase translation blockers – H4 neuroglioma cells, luminescence, confirmation (AID 1988); assay type: functional, cell-based
# [14] = luciferase reporter signal suppression in cells – H4 neuroglioma cells, luminescence, dose response (AID 1990); assay type: functional, cell-based
# [15] = Luminescence Cell-Based Dose Response HTS to Identify Inhibitors of 5'UTR Stem-Loop Driven Prion Protein mRNA Translation in H4 Neuroglioblastoma Cells. [Related pubchem assays: 1827 (Project Summary), 1813 (Primary HTS)]; assay type: functional
# Transthyretin = Transthyretin (Homo sapiens, UniProt P02766); assay: Luminescence-based cell-based high throughput dose response assay to identify activators of Transthyretin (TTR) transcription.; assay type: functional
# Paired box protein Pax-8 = Paired box protein Pax-8 (Homo sapiens, UniProt Q06710); assay: PAX8 transcriptional activity inhibition in RMG-I – RMG-I cells, luciferase, cherry-pick, dose response (AID 687027); assay type: functional, cell-based;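 further: luciferase reporter driven by Pax8 target thyroperoxidase promoter measured by SteadyGlo luminescence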
# [16] = Luminescent dose response cell-based high throughput screening assay for inhibitors of the Janus kinase 2 mutant JAK2V617F. [Related pubchem assays: 1446 (Primary screen.), 1521 (Confirmation assay.), 1486 (Counter screen.)]; assay type: functional
# Vero = assay: cells; assay type: functional; details: Chlorocebus sabaeus
# [17] = PAX8-dependent cell viability loss – plate reader, dry powder, dose response (AID 743049); assay type: functional, cell-based
# [18] = P. falciparum Dd2 growth inhibitors, dose response, SYBR Green, cherry-picked samples (AID 1159567); assay type: functional, cell-based
# [19] = OV-90 cell viability loss – plate reader, dry powder, SA8, PAX8 inhibitor project, dose response (AID 743149); assay type: functional, cell-based
# [20] = PAX5 cellular inhibition readout – cell-based, plate reader, dry powder samples, selectivity assay for PAX8 inhibitor project, dose response (AID 743047); assay type: functional;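 further: HEK293 cells carrying a Pax5 driven CD19 promoter luciferase reporter; potency of inhibitors that lower reporter luminescence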
# [21] = COV362 cell viability loss – plate reader, dry powder, SA12, cytotoxicity control for PAX8 inhibitor project, dose response (AID 743144); assay type: functional, cell-based
# [22] = inhibitors acting on PAX2 in cells – cell-based, plate reader, dry powder samples, selectivity assay for PAX8 inhibitor project, dose response (AID 743048); assay type: functional;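 further: HEK293 cells carrying a WT1 promoter luciferase reporter driven by expressed Pax2; potency is for inhibition of Pax2 driven reporter signal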
# [23] = Dd2 parasite growth inhibition in erythrocytes – SYBR Green, dry powder samples, set 4, dose response (AID 1159572); assay type: functional, cell-based
# [24] = Dd2 malaria parasite growth inhibition potency – SYBR Green, dry powder samples, dose response (AID 1159566); assay type: functional, cell-based;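 further: potency for growth inhibition with lower SYBR green DNA signal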
# [25] = toxicity to human HepG2 hepatoma cells – cell-based, plate reader, dry powder samples, cytotoxicity control, dose response (AID 1159569); assay type: functional;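 further: inhibitor potency with signal falling toward the positive control level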
# [26] = growth inhibition of yeast DHODH-expressing 3D7 parasites – SYBR Green, dry powder samples, dose response (AID 1159570); assay type: functional, cell-based;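 further: parasite growth measured after 72 hours of compound exposure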
# [27] = growth inhibition of PfATP4-mutant resistant parasites – NITD609-resistant line, SYBR Green, dry powder, dose response (AID 1159571); assay type: functional, cell-based;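 further: parasites synchronized at ring stage by sorbitol before testing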
# [28] = toxicity to human hepatoma HepG2 cells – cell-based, cherry-picked samples, cytotoxicity control, dose response (AID 1159577); assay type: functional
# [29] = toxicity to HepG2 liver cells – cell-based, plate reader, dry powder, set 6, cytotoxicity control, dose response (AID 743311); assay type: functional
# [30] = toxicity to A549 lung cells – cell-based, plate reader, dry powder, set 6, cytotoxicity control, dose response (AID 743312); assay type: functional
# cells [31] = details: HEK293
# [32] = cytotoxicity toward HT-29 cells – cell-based, CellTiter-Glo luminescence, IC50, dose response (AID 1117330); assay type: functional
# [33] = CellTiter-Glo luminescence survival assay, SW480 colon tumor line, concentration-response curve, half-maximal inhibitory concentration (AID 1117338); assay type: functional
# [34] = RKO cell viability reduction, dose response, CellTiter-Glo luminescence (AID 1117322); assay type: functional
# [35] = rise of 4N DNA cells, HeLa – IC50, dose response (AID 1117351); assay type: functional, cell-based
# [36] = Reduced DLD-1 viability, concentration-response, CellTiter-Glo luminescence (AID 1117352); assay type: functional
# [37] = SNU-C1 cell viability reduction, dose response, CellTiter-Glo luminescence (AID 1117323); assay type: functional, cell-based
# [38] = cytotoxicity toward HCT116 cells – cell-based, CellTiter-Glo luminescence, IC50, dose response (AID 1117332); assay type: functional; details: HCT-116
# [39] = cytotoxicity toward Colo320 cells – cell-based, CellTiter-Glo luminescence, IC50, dose response (AID 1117334); assay type: functional; details: COLO 320
# [40] = rise of 2N DNA cells, HeLa – IC50, dose response (AID 1117349); assay type: functional, cell-based
# Sequence of Paired box protein Pax-8 (Q06710 whole entry): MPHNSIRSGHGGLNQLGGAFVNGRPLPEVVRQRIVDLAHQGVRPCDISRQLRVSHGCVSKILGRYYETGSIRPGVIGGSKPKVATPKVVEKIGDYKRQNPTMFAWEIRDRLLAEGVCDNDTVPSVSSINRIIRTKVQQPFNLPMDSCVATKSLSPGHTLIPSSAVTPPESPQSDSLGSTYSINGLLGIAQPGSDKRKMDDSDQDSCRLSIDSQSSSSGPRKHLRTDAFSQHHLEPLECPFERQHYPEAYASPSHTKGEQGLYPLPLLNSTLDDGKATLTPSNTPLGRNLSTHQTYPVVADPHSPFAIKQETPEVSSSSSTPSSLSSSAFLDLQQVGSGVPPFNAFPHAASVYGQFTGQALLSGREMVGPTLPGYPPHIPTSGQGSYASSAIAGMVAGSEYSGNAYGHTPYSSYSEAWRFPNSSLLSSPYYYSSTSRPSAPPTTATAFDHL
# Sequence of Diphosphomevalonate decarboxylase (Q9FD53 whole entry): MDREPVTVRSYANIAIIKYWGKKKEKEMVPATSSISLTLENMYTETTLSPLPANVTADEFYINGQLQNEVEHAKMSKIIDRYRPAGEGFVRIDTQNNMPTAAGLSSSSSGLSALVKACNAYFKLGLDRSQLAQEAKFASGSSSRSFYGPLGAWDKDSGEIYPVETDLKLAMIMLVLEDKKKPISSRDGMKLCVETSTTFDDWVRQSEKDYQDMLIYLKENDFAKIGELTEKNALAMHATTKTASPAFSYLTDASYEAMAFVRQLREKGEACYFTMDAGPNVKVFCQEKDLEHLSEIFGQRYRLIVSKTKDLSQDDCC
# Sequence of Photoreceptor-specific nuclear receptor (Q9Y5X4 whole entry): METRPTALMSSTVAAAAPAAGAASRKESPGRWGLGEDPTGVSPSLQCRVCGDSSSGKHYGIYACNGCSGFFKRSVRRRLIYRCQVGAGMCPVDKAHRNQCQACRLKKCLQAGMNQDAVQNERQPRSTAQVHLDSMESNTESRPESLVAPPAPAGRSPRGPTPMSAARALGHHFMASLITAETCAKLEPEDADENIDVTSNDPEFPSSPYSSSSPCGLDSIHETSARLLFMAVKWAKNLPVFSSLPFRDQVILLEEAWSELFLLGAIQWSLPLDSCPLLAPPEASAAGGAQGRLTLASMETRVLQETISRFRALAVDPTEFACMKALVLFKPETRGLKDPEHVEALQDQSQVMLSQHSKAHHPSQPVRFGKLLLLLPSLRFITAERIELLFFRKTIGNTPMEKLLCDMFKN
# Sequence of Nonstructural protein 1 (Q194T2 whole entry): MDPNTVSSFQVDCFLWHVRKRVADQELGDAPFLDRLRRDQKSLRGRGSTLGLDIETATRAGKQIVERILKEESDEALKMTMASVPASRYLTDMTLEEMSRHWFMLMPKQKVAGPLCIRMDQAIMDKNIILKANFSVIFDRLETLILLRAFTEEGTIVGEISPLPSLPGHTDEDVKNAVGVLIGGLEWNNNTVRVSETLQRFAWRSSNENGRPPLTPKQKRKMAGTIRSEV
# Sequence of Peroxisome proliferator-activated receptor gamma/Nuclear receptor corepressor 2 (P37231 whole entry): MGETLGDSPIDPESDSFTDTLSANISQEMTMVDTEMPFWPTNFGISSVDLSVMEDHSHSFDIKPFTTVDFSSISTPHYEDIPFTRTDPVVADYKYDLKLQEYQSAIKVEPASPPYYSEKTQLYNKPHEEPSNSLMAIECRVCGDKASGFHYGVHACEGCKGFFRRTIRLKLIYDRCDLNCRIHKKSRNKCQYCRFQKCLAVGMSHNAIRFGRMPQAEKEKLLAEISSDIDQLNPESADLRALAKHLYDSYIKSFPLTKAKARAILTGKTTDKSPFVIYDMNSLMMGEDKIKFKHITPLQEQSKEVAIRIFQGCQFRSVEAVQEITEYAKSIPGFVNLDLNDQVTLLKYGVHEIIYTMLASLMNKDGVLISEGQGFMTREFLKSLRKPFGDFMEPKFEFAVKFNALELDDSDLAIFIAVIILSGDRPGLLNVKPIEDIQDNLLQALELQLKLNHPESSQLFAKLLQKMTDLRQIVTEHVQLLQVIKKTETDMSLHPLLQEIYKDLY
# Sequence of Peroxisome proliferator-activated receptor gamma/Nuclear receptor corepressor 2 (Q9Y618 whole entry): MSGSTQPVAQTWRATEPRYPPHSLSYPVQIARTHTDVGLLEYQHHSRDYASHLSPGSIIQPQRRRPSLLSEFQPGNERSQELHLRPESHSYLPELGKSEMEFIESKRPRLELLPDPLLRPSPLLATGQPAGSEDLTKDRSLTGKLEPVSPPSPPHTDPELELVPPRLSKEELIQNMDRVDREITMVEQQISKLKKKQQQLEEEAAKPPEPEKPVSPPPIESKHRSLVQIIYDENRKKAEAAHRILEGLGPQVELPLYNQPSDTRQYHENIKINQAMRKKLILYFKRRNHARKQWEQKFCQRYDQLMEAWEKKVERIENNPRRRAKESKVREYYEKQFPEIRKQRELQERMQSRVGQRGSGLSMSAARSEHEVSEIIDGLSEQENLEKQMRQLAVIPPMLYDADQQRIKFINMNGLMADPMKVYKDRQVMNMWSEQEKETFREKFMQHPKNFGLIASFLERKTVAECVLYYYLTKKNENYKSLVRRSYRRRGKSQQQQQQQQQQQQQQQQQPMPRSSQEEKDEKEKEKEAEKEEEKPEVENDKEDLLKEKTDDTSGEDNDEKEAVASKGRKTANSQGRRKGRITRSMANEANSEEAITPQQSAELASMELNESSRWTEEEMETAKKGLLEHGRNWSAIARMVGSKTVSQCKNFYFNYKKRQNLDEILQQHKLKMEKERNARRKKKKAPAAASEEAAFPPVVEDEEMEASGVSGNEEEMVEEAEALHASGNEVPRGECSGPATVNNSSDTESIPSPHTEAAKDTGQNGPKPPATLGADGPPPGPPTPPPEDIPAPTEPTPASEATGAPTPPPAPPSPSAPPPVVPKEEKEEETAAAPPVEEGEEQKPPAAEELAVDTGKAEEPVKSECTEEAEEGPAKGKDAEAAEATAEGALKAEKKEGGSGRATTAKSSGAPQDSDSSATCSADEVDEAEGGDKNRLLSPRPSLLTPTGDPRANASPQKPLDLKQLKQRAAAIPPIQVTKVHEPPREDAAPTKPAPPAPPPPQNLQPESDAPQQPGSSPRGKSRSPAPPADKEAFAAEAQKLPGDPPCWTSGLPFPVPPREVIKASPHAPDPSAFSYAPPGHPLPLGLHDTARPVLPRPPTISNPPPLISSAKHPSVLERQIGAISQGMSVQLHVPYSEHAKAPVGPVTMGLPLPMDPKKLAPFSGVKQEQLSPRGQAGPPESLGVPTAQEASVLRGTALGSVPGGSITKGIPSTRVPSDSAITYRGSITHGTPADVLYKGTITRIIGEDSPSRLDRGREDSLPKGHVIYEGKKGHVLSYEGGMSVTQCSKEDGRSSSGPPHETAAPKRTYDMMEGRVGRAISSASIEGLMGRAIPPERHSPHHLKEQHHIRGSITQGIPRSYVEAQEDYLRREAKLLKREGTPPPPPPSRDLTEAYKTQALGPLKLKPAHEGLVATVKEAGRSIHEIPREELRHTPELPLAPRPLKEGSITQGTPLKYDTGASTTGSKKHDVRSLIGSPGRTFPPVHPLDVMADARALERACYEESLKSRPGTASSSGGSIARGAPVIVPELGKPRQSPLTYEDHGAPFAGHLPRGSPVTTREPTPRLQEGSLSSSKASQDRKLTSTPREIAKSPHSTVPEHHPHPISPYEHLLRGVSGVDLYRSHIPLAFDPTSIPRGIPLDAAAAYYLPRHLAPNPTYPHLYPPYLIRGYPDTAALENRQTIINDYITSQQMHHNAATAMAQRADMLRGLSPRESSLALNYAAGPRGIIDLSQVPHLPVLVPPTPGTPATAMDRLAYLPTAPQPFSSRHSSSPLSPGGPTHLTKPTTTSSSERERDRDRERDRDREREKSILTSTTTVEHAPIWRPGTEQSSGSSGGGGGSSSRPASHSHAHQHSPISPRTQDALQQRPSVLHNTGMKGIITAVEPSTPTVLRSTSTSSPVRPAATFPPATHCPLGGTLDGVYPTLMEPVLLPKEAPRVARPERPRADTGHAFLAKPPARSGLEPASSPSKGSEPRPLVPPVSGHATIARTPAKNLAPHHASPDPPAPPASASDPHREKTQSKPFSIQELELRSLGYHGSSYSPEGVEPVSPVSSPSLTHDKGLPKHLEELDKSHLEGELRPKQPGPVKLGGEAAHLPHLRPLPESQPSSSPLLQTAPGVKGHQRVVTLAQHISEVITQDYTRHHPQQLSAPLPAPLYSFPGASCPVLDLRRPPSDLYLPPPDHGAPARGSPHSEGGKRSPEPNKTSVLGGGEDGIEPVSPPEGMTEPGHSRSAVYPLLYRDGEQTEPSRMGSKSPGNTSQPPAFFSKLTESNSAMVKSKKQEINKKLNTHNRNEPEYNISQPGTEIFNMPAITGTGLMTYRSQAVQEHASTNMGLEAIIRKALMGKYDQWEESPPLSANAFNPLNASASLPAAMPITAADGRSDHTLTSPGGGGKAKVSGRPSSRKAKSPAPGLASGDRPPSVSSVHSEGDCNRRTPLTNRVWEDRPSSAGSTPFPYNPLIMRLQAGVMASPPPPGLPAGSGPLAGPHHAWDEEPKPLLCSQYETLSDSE
smiles,measurement,setting,value
CN1CCc2c(sc3c2c(=O)n(-c2ccccc2)c2nnc(SCc4ccc(Cl)cc4)n32)C1,EC50,cells [1],< 0.004 µM (active)
same,EC50,[2],< 0.1 µM (active)
same,EC50,[3],> 60 µM (not active)
CC(=O)c1sc(NS(=O)(=O)c2ccc(C)cc2)nc1-c1ccccc1,IC50,[4],> 39.8 µM (not active)
same,IC50,[5],> 39.8 µM (not active)
CC(C)Oc1ccc(C(=O)N(Cc2ccco2)C2CCS(=O)(=O)C2)cc1 (stereo unspecified),CC50,[6],> 40 µM (active)
O=C(NCC1CC1)c1ccc(-n2sc3ccccc3c2=O)cc1,IC50,[7],11.9 µM (active)
COCC(=O)N1CCC(n2nnc3cc(F)ccc32)CC1,IC50,[8],> 100 µM (not active)
Fc1ccccc1-c1nc(-c2ccc(Br)o2)no1,EC50,cells [9],> 67.6 µM (inactive)
same,EC50,[10],> 67.6 µM (inactive)
same,IC50,Protein skinhead-1,> 100 µM (inactive)
Nc1ccc(N2CCCCC2)cc1N1CCCCC1,IC50,Bcl-2-related protein A1 [11],> 100 µM (not active)
same,EC50,[2],0.197 µM (active)
same,EC50,[3],> 60 µM (not active)
same,IC50,Bcl-2-related protein A1 [12],> 100 µM (not active)
same,IC50,Nonstructural protein 1,16.1 µM (active)
same,AC50,INS1,12.9 µM (active)
same,EC50,[13],> 120 µM (not active)
same,EC50,[14],> 120 µM (not active)
same,EC50,[15],> 120 µM (not active)
Cn1ncc(Cl)c1C(=O)N1CCc2ccccc21,EC50,Transthyretin,> 167 µM (inactive)
Cc1nc2ccccc2c(O)c1C(=O)/C=C/c1ccccc1,AC50,Paired box protein Pax-8,6.93 µM (active)
same,IC50,[16],1.71 µM (active)
same,CC50,Vero,7.78 µM (active)
N#C[C@H]1[C@@H](c2ccc(C#CC3CCCCC3)cc2)[C@@H](CO)N1S(=O)(=O)c1ccccc1,AC50,[17],18.7 µM (active)
same,AC50,Paired box protein Pax-8,8.09 µM (active)
same,AC50,[18],4.94 µM (active)
same,AC50,[19],32.3 µM (active)
same,AC50,[20],19.3 µM (active)
same,AC50,[21],61.4 µM (active)
same,AC50,[22],19 µM (active)
CCCNC(=O)N1CCC2(CC1)CN(C(C)=O)[C@@H](CO)c1[nH]c3cc(OC)ccc3c12,AC50,[23],9.51 µM (active)
COc1ccc(C#Cc2ccc3c(c2)[C@@H]2[C@@H](CCN2C(=O)C2CCCC2)[C@@H](CO)N3)cc1,AC50,[24],1.09 µM (active)
same,AC50,[18],2.82 µM (active)
same,AC50,[25],> 100 µM (inactive)
same,AC50,[26],1.31 µM (active)
same,AC50,[27],1.1 µM (active)
Cc1cccc(S(=O)(=O)N2CCCCN3[C@@H](CO)[C@@H](c4ccc(C#CC5CC5)cc4)[C@@H]3C2)c1,AC50,[18],1.3 µM (active)
same,AC50,[28],14.4 µM (active)
CC(C)c1ccccc1OCCn1c(=S)[nH]c2ccccc21,AC50,[29],32.9 µM (active)
same,AC50,[30],21.1 µM (active)
same,AC50,cells [31],27.6 µM (active)
O=c1c(-c2ccccc2)c1-c1ccccc1 [DIPHENCYPRONE],IC50,[32],> 20 µM (inactive)
same,IC50,[33],> 20 µM (inactive)
same,IC50,[34],> 20 µM (inactive)
same,IC50,[35],> 10 µM (inactive)
same,IC50,[36],4.21 µM (active)
same,IC50,[37],> 20 µM (inactive)
same,IC50,[38],> 20 µM (inactive)
same,IC50,[39],3.1 µM (active)
same,IC50,[40],> 10 µM (inactive)
